# Measurements as given in paper PMC5078040 (Oncotarget, 2016).
# Key:
# MST2 = molecular target: T1, MST2 (Homo sapiens, UniProt Q13188); assay: KinomeScan; assay type: binding; conditions: 1uM
# T1 construct: purchased DiscoveRx KINOMEscan
# ALK(L1196M) = molecular target: T2, ALK(L1196M) (Homo sapiens, UniProt Q9UM73, L1196M); assay: KinomeScan; assay type: binding; conditions: 1uM
# T2 construct: purchased DiscoveRx KINOMEscan
# PRKD3 = molecular target: T3, PRKD3 (Homo sapiens, UniProt O94806); assay: KinomeScan; assay type: binding; conditions: 1uM
# T3 construct: purchased DiscoveRx KINOMEscan
# FRK = molecular target: T4, FRK (Homo sapiens, UniProt P42685); assay: KinomeScan; assay type: binding; conditions: 1uM
# T4 construct: purchased DiscoveRx KINOMEscan
# DAPK2 = molecular target: T5, DAPK2 (Homo sapiens, UniProt Q9UIK4); assay: KinomeScan; assay type: binding; conditions: 1uM
# T5 construct: purchased DiscoveRx KINOMEscan
# CAMK2B = molecular target: T6, CAMK2B (Homo sapiens, UniProt Q13554); assay: KinomeScan; assay type: binding; conditions: 1uM
# T6 construct: purchased DiscoveRx KINOMEscan
# HIPK2 = molecular target: T7, HIPK2 (Homo sapiens, UniProt Q9H2X6); assay: KinomeScan; assay type: binding; conditions: 1uM
# T7 construct: purchased DiscoveRx KINOMEscan
# EPHA6 = molecular target: T8, EPHA6 (Homo sapiens, UniProt Q9UF33); assay: KinomeScan; assay type: binding; conditions: 1uM
# T8 construct: purchased DiscoveRx KINOMEscan
# PAK7 = molecular target: T9, PAK7 (Homo sapiens, UniProt Q9P286); assay: KinomeScan; assay type: binding; conditions: 1uM
# T9 construct: purchased DiscoveRx KINOMEscan
# CSNK2A1 = molecular target: T10, CSNK2A1 (Homo sapiens, UniProt P68400); assay: KinomeScan; assay type: binding; conditions: 1uM
# T10 construct: purchased DiscoveRx KINOMEscan
# TNIK = molecular target: T11, TNIK (Homo sapiens, UniProt Q9UKE5); assay: KinomeScan; assay type: binding; conditions: 1uM
# T11 construct: purchased DiscoveRx KINOMEscan
# TTK = molecular target: T12, TTK (Homo sapiens, UniProt P33981); assay: KinomeScan; assay type: binding; conditions: 1uM
# T12 construct: purchased DiscoveRx KINOMEscan
# CSNK1D = molecular target: T13, CSNK1D (Homo sapiens, UniProt P48730); assay: KinomeScan; assay type: binding; conditions: 1uM
# T13 construct: purchased DiscoveRx KINOMEscan
# FYN = molecular target: T14, FYN (Homo sapiens, UniProt P06241); assay: KinomeScan; assay type: binding; conditions: 1uM
# T14 construct: purchased DiscoveRx KINOMEscan
# PRKCI = molecular target: T15, PRKCI (Homo sapiens, UniProt P41743); assay: KinomeScan; assay type: binding; conditions: 1uM
# T15 construct: purchased DiscoveRx KINOMEscan
# PIK3CA = molecular target: T16, PIK3CA (Homo sapiens, UniProt P42336); assay: KinomeScan; assay type: binding; conditions: 1uM
# T16 construct: purchased DiscoveRx KINOMEscan
# PRKCE = molecular target: T17, PRKCE (Homo sapiens, UniProt Q02156); assay: KinomeScan; assay type: binding; conditions: 1uM
# T17 construct: purchased DiscoveRx KINOMEscan
# DCAMKL3 = molecular target: T18, DCAMKL3 (Homo sapiens, UniProt Q9C098); assay: KinomeScan; assay type: binding; conditions: 1uM
# T18 construct: purchased DiscoveRx KINOMEscan
# MLCK = molecular target: T19, MLCK (Homo sapiens, UniProt Q32MK0); assay: KinomeScan; assay type: binding; conditions: 1uM
# T19 construct: purchased DiscoveRx KINOMEscan
# MAP4K4 = molecular target: T20, MAP4K4 (Homo sapiens, UniProt O95819); assay: KinomeScan; assay type: binding; conditions: 1uM
# T20 construct: purchased DiscoveRx KINOMEscan
# CAMK1D = molecular target: T21, CAMK1D (Homo sapiens, UniProt Q8IU85); assay: KinomeScan; assay type: binding; conditions: 1uM
# T21 construct: purchased DiscoveRx KINOMEscan
# NEK9 = molecular target: T22, NEK9 (Homo sapiens, UniProt Q8TD19); assay: KinomeScan; assay type: binding; conditions: 1uM
# T22 construct: purchased DiscoveRx KINOMEscan
# ABL1-nonphosphorylated = molecular target: T23, ABL1-nonphosphorylated (Homo sapiens, UniProt P00519); assay: KinomeScan; assay type: binding; conditions: 1uM
# T23 construct: purchased DiscoveRx KINOMEscan
# IRAK1 = molecular target: T24, IRAK1 (Homo sapiens, UniProt P51617); assay: KinomeScan; assay type: binding; conditions: 1uM
# T24 construct: purchased DiscoveRx KINOMEscan
# RET(V804L) = molecular target: T25, RET(V804L) (Homo sapiens, UniProt P07949, V804L); assay: KinomeScan; assay type: binding; conditions: 1uM
# T25 construct: purchased DiscoveRx KINOMEscan
# DDR2 = molecular target: T26, DDR2 (Homo sapiens, UniProt Q16832); assay: KinomeScan; assay type: binding; conditions: 1uM
# T26 construct: purchased DiscoveRx KINOMEscan
# IKK-epsilon = molecular target: T27, IKK-epsilon (Homo sapiens, UniProt Q14164); assay: KinomeScan; assay type: binding; conditions: 1uM
# T27 construct: purchased DiscoveRx KINOMEscan
# ERK3 = molecular target: T28, ERK3 (Homo sapiens, UniProt Q16659); assay: KinomeScan; assay type: binding; conditions: 1uM
# T28 construct: purchased DiscoveRx KINOMEscan
# PI4KA = molecular target: T29, PI4KA (Homo sapiens, UniProt P42356); assay: ADP-glo biochemical assay
# T29 construct: purchased Invitrogen
# Description: The reaction in each tube was started immediately by adding ATP and kept going for an hour under 37°C. After the tube cooled for 5 minutes at room temperature, 5 μL solvent reactions were carried out in a 384-well plate. Then 5 μL of ADP-Glo™ reagent was added into each well to stop the reaction and consume the remaining ADP within 40 minutes. At the end, 10 μL of kinase detection reagent was added into the well and incubated for 30 minutes to produce a luminescence signal. Luminescence signal was measured with an automated plate reader (Perkin-Elmer Envision) and each measurement was performed in triplicate.
# CLL patient primary cell = assay: Anti-proliferative efficacy against patient primary cells; assay type: cell-based; conditions: Homo sapiens
# Description: Peripheral blood mononuclear cells (PBMCs) from individuals with CLL were isolated by density centrifugation through Ficoll and frozen for each subject. Those subjects with low white counts whose CLL cell purity was expected to be < 85% underwent B cell isolation using RosetteSep. The protocol was approved by the Dana-Farber Harvard Cancer Center Institutional Review Board and all subjects signed written informed consent prior to participation.
# Cells were grown in 96-well culture plates (3000-4000/well). […] Cell proliferation was determined after treatment with compounds for 72 hours. Cell viability was measured using the CellTiter–Glo Assay Kit (Promega, USA), according to the manufacturer's instructions, and luminescence was measured in a multi-label reader (Envision, PerkinElmer, USA). Data were normalized to control groups (DMSO) and represented by the mean of three independent measurements with standard error <20%. GI50 values were calculated using Prism 5.0 (GraphPad Software, San Diego, CA).
# MARK4 = molecular target: T30, MARK4 (Homo sapiens, UniProt Q96L34); assay: KinomeScan; assay type: binding; conditions: 1uM
# T30 construct: purchased DiscoveRx KINOMEscan
# WEE2 = molecular target: T31, WEE2 (Homo sapiens, UniProt P0C1S8); assay: KinomeScan; assay type: binding; conditions: 1uM
# T31 construct: purchased DiscoveRx KINOMEscan
# PKAC-alpha = molecular target: T32, PKAC-alpha (Homo sapiens, UniProt P17612); assay: KinomeScan; assay type: binding; conditions: 1uM
# T32 construct: purchased DiscoveRx KINOMEscan
# NEK4 = molecular target: T33, NEK4 (Homo sapiens, UniProt P51957); assay: KinomeScan; assay type: binding; conditions: 1uM
# T33 construct: purchased DiscoveRx KINOMEscan
# SRPK1 = molecular target: T34, SRPK1 (Homo sapiens, UniProt Q96SB4); assay: KinomeScan; assay type: binding; conditions: 1uM
# T34 construct: purchased DiscoveRx KINOMEscan
# SGK = molecular target: T35, SGK (Homo sapiens, UniProt O00141); assay: KinomeScan; assay type: binding; conditions: 1uM
# T35 construct: purchased DiscoveRx KINOMEscan
# EPHB1 = molecular target: T36, EPHB1 (Homo sapiens, UniProt P54762); assay: KinomeScan; assay type: binding; conditions: 1uM
# T36 construct: purchased DiscoveRx KINOMEscan
# EGFR(E746-A750del) = molecular target: T37, EGFR(E746-A750del) (Homo sapiens, UniProt P00533, DEL746-750); assay: KinomeScan; assay type: binding; conditions: 1uM
# T37 construct: purchased DiscoveRx KINOMEscan
# CDK3 = molecular target: T38, CDK3 (Homo sapiens, UniProt Q00526); assay: KinomeScan; assay type: binding; conditions: 1uM
# T38 construct: purchased DiscoveRx KINOMEscan
# T38 sequence (Q00526 whole entry): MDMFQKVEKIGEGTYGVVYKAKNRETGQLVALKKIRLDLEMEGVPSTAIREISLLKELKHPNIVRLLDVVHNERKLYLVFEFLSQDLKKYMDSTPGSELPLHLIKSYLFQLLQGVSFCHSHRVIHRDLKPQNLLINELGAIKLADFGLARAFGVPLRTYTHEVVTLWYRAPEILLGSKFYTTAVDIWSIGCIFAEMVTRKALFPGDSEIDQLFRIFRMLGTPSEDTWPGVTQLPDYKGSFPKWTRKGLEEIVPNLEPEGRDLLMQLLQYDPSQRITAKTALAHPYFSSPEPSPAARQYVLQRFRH
# T31 sequence (P0C1S8 whole entry): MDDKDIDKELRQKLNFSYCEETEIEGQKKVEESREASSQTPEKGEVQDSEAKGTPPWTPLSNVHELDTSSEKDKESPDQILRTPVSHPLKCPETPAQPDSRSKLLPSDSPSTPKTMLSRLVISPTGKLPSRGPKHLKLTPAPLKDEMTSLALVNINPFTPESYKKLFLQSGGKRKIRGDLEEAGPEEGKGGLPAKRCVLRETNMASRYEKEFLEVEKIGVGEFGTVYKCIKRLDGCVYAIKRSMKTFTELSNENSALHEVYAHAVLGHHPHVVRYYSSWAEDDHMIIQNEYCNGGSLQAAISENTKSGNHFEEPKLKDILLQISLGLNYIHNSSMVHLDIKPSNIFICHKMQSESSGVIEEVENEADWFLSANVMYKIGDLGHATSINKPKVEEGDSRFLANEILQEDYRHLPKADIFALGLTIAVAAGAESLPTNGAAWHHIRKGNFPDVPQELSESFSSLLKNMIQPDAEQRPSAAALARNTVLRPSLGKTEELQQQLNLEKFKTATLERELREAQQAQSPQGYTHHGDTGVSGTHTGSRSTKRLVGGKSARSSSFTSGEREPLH
# T23 sequence (P00519 whole entry): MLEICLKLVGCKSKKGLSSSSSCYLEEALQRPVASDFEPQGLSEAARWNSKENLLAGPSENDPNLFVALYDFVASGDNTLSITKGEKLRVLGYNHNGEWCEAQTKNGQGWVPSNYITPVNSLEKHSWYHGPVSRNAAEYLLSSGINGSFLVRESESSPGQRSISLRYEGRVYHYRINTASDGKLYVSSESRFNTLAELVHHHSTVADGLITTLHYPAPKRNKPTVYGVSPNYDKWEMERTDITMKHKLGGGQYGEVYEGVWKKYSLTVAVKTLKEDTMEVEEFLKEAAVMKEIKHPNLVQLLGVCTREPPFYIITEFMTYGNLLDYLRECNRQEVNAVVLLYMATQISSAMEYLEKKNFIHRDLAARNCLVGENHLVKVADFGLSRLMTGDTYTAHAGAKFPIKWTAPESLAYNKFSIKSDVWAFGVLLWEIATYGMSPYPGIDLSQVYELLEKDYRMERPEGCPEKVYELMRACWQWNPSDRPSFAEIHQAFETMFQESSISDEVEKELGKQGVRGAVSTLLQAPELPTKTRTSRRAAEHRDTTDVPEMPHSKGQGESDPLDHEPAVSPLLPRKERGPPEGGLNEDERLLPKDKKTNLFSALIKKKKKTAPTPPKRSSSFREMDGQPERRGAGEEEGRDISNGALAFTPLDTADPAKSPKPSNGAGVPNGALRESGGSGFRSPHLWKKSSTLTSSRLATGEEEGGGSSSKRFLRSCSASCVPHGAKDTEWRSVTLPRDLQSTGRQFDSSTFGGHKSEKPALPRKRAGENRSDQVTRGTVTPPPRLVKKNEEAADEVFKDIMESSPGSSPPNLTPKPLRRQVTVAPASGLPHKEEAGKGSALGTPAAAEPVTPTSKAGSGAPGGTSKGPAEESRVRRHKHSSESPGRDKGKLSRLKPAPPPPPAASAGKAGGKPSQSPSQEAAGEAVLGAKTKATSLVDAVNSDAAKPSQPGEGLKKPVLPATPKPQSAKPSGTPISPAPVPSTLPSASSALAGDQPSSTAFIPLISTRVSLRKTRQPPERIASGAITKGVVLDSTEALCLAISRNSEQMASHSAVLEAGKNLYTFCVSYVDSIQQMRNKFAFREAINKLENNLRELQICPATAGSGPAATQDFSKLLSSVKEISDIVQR
# T14 sequence (P06241 whole entry): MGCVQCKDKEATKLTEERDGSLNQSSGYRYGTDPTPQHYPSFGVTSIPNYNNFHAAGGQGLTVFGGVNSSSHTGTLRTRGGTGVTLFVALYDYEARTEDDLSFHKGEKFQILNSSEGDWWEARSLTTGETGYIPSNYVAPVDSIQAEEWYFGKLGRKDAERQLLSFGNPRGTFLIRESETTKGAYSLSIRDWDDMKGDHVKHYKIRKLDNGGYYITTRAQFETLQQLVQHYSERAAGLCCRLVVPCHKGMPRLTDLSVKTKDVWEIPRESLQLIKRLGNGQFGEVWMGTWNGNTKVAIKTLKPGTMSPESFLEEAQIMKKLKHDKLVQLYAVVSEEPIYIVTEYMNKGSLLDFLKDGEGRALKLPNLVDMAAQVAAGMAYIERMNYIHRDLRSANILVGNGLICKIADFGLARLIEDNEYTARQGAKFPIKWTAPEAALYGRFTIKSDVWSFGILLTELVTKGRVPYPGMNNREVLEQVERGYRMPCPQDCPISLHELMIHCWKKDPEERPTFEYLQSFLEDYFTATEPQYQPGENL
# T19 sequence (Q32MK0 whole entry): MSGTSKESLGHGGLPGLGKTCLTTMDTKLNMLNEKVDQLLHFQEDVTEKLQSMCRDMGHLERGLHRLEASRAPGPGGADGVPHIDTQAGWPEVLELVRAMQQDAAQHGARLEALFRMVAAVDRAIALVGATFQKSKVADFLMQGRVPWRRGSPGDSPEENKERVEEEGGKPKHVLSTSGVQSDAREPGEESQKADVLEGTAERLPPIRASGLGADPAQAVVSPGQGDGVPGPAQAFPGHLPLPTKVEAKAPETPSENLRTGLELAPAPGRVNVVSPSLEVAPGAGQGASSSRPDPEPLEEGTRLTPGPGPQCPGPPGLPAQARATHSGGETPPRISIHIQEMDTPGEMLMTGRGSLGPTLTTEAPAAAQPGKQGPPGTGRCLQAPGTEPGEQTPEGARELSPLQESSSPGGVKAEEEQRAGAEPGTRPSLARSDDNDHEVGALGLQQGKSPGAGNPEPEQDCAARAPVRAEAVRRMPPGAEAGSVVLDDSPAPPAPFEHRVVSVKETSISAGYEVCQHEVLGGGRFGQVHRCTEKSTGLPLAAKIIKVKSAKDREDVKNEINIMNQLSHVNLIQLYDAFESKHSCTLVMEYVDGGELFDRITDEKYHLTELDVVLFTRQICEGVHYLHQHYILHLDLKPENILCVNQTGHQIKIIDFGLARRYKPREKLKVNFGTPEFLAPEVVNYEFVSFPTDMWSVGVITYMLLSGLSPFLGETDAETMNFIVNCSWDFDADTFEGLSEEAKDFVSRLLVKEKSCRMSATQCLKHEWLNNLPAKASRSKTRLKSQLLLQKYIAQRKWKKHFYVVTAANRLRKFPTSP
# T1 sequence (Q13188 whole entry): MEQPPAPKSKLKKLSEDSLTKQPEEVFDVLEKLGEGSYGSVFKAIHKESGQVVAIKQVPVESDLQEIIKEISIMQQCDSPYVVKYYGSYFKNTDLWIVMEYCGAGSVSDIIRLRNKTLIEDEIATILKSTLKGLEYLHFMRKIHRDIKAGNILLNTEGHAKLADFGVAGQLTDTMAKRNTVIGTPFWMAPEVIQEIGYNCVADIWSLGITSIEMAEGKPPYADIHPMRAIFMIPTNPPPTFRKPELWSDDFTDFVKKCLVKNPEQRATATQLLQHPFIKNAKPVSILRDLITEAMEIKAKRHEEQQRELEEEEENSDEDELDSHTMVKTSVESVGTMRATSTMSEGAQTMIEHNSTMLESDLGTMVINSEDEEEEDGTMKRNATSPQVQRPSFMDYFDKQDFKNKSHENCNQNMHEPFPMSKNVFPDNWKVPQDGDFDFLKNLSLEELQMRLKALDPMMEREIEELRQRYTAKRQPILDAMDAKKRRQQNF
# T25 sequence (P07949 29-1114 V804L): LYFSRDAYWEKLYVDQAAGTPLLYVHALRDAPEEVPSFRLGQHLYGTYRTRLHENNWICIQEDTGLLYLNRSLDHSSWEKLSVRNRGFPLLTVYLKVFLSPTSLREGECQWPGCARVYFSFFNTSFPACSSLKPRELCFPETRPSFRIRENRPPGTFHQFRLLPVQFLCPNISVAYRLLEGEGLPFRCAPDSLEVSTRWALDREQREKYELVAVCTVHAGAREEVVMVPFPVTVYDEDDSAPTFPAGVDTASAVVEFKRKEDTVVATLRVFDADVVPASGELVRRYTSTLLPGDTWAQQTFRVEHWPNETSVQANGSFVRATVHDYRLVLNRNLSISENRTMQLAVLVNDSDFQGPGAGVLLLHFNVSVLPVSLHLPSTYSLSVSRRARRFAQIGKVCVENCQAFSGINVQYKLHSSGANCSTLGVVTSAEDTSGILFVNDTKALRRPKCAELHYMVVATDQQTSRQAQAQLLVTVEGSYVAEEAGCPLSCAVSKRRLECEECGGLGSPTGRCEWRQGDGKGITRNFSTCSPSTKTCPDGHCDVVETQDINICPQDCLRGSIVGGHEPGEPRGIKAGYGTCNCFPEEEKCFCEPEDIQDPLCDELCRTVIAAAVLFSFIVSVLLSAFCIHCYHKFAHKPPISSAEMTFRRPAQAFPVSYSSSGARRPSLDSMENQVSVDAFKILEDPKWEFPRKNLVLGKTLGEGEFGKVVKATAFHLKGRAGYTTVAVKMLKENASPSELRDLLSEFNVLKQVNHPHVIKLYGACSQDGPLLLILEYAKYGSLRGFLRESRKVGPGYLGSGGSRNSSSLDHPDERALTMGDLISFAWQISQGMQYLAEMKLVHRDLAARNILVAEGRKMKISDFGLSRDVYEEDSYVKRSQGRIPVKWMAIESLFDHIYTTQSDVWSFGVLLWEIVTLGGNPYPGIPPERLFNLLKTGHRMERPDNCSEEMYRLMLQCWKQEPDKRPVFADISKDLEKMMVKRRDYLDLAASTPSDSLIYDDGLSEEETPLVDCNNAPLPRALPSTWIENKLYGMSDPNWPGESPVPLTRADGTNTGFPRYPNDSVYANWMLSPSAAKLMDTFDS
smiles,measurement,setting,value
Cc1nc(NC(=O)[C@@H](N)C(C)C)sc1-c1cnc(Cl)c(NS(=O)(=O)c2ccccc2)c1 [PI3KD-IN-015],KinomeScan MST2,MST2,87
same,KinomeScan ALK(L1196M),ALK(L1196M),100
same,KinomeScan PRKD3,PRKD3,100
same,KinomeScan FRK,FRK,97
same,KinomeScan DAPK2,DAPK2,97
same,KinomeScan CAMK2B,CAMK2B,91
same,KinomeScan HIPK2,HIPK2,100
same,KinomeScan EPHA6,EPHA6,100
same,KinomeScan PAK7,PAK7,89
same,KinomeScan CSNK2A1,CSNK2A1,100
same,KinomeScan TNIK,TNIK,95
same,KinomeScan TTK,TTK,96
same,KinomeScan CSNK1D,CSNK1D,79
same,KinomeScan FYN,FYN,100
same,KinomeScan PRKCI,PRKCI,100
same,KinomeScan PIK3CA,PIK3CA,7.2
same,KinomeScan PRKCE,PRKCE,100
same,KinomeScan DCAMKL3,DCAMKL3,100
same,KinomeScan MLCK,MLCK,95
same,KinomeScan MAP4K4,MAP4K4,100
same,KinomeScan CAMK1D,CAMK1D,94
same,KinomeScan NEK9,NEK9,100
same,KinomeScan ABL1-nonphosphorylated,ABL1-nonphosphorylated,100
same,KinomeScan IRAK1,IRAK1,60
same,KinomeScan RET(V804L),RET(V804L),97
same,KinomeScan DDR2,DDR2,96
same,KinomeScan IKK-epsilon,IKK-epsilon,100
same,KinomeScan ERK3,ERK3,96
same,IC50,PI4KA,> 10 µM
same,GI50,CLL patient primary cell; patient primary cell CLL16,7.8 µM
same,GI50,CLL patient primary cell; patient primary cell CLL18,> 10 µM
same,GI50,CLL patient primary cell; patient primary cell CLL19,1.5 µM
same,KinomeScan MARK4,MARK4,100
same,KinomeScan WEE2,WEE2,100
same,KinomeScan PKAC-alpha,PKAC-alpha,96
same,KinomeScan NEK4,NEK4,98
same,KinomeScan SRPK1,SRPK1,93
same,KinomeScan SGK,SGK,70
same,KinomeScan EPHB1,EPHB1,100
same,KinomeScan EGFR(E746-A750del),EGFR(E746-A750del),100
same,KinomeScan CDK3,CDK3,100
